Test results reported in US20250283110A1, “METHODS AND COMPOSITIONS FOR TRANSDUCTION OF NK CELLS” (ST. JUDE CHILDREN'S RESEARCH HOSPITAL, INC., priority 2021, published 2025).
Entries after “also recorded” stand apart in the source; their conditions may differ.

Legend:
[1] = tested on: TBK1/IKKε; conditions: Ref. 20; cited from earlier work
[2] = tested on: NK cells; assay: cells; type: cell-based; conditions: Homo sapiens, 72 h; N=3; read-out: EC50 of YFP expression in NK cells
[3] = tested on: NK cells; assay: NK cell immunophenotyping by flow cytometry with and without inhibitor; type: cell-based, Human; conditions: 2 μM for 24 hours, then 48 hours fresh media; N=3; paired two-tailed t-test treated vs untreated
Procedure: FIGS. 4A-4B show representative data relating to NK cell phenotype with and without treatment with a representative disclosed compound, MRT67307. Briefly, NK cells were treated with and without 2μMMRT67307 for 24 hours. Media was removed and replaced with fresh complete media and cells incubated for another 48 hours. Cells were immunophenotyped via flow cytometry. NK cells were identified as efluor455UV negative, CD3 negative, and CD56 positive.
250,000 NK cells were collected and washed twice in DPBS. Surface HER2-CAR detection was determined via immunolabeling with anti-F (ab′) 2-AF647 (109-606-006, Jackson Labs, Bar Harbor, ME, USA; 1:100), CD19-CAR was detected with PE conjugated recombinant human CD19 protein (3309HP, Creative Biomart, Shirley, NY, USA; 1:100), or YFP were utilized for detection on a BD FACS Lyric machine and analyzed with FlowJo v10 (BD). Immunophenotyping was performed on a BD Symphony flow cytometer. Antibodies used are delineated in below in Table 1.

Structure (SMILES) | specificity for TBK1/IKKε [1] | EC50 [2] [µM] | effect on NK cell phenotype [3]
O=C(NCCCNc1nc(Nc2cccc(CN3CCOCC3)c2)ncc1C1CC1)C1CCC1 [MRT67307, N-[3-[[5-cyclopropyl-2-[3-(morpholin-4-ylmethyl)anilino]pyrimidin-4-yl]amino]propyl]cyclobutanecarboxamide] | more specific for TBK1/IKKε than BX-795 | 1.1 | no effect; also recorded: No parameter was significantly different
O=C(NCCCNc1nc(Nc2cccc(NC(=O)N3CCCC3)c2)ncc1I)c1cccs1 [BX-795] | – | 5 | –
